Entries after “also recorded” stand apart in the source; their conditions may differ.

Experiment [1] relates to C57BL/6J wild-type mice. Briefly: Acetaminophen-induced liver injury model in mice. The format is in vivo. The following applies: for Necrotic Area (%) of the liver (liver tissue protection): 5 mg/kg and 10 mg/kg i.v. 1 h after APAP 300 mg/kg i.p.; for Necrotic Area (%) of the liver (liver tissue protection) / ALT biomarker level / AST biomarker level: vs APAP alone. Here is the method: C57BL/6J wild-type mice were purchased from Guangdong Medical Animal Centre (Guangzhou, China). Male mice (n=8, 8 weeks of age) were randomly assigned to the different treatment groups. Mice were acclimatized to their environment for 1 week before the experiments. Animals were fasted overnight, but allowed access to water, before acetaminophen (APAP) administration.
APAP (Sigma Aldrich) was dissolved in warm phosphate-buffered saline (PBS; 55° C.) that was cooled to 37° C. before injection and administered intraperitoneally with APAP at a dose of 300 mg/kg after 15 hours of starvation. Compound 1 was made fresh for each experiment in sterile 0.9% saline at 20 mg/ml. N-acetylcysteine (NAC, Sigma Aldrich) was made fresh for each experiment in 0.9% saline at 20 mg/ml.
After APAP administration (1 hours), either PBS (Control Group), Compound 1 (10 mg/kg, 5 mg/kg, 2.5 mg/kg, 1 mg/kg) or NAC (150 mg/kg) were injected intravenously in the tail vein of mice. In the Control Group, the mice were injected with phosphate-buffered saline vehicle (labelled “Ctrl” in the Figures), in the Vigilance Group the mice were injected with Compound 1 (labelled “v-Compound 1-10 mg” in the Figures). In both the Control and Vigilance Groups, no APAP was administered.
Mice were sacrificed at 6 and 24 hours after administration of APAP. Blood samples and livers were harvested for serum ALT (alanine aminotransferase) and AST (aspartate aminotransferase), and histology. ALT and AST in serum samples were detected using the alanine aminotransferase assay kit (S03030) and the aspartate aminotransferase assay kit (S03040) and automated clinical chemistry analyzer (Chemray 800) from Rayto.
All liver sections were stained with a hematoxylin and eosin (H&E) stain. Necrotic area was measured and expressed as a percentage of necrotic tissue in whole area of liver section. All animal procedures were approved by the Laboratory Animals Ethics Committee of Jinan University (Guangzhou, China).

The test system of experiment [2] is C57BL/6J wild-type mice. Briefly: Alcohol-induced liver injury in mice (chronic 8 weeks ethanol diet plus multiple binges, E8w+nB). The format is in vivo. Conditions: 10 mg/kg i.p. daily for the last two weeks of 8 weeks alcohol plus binges. The source says: C57BL/6J wild-type mice were purchased from Guangdong Medical Animal Centre (Guangzhou, China). Male mice (n=7, 8 weeks of age) were randomly assigned to the different treatment groups. The mice were initially fed a controlled Lieber-DeCarli diet ad libitum for 5 days (TP4030C, Trophic Animal Feed High-Tech Co., Ltd, China) to acclimatize them to a liquid diet. Subsequently, the ethanol-fed groups were allowed free access for 8 weeks to an ethanol diet (TP4030D, Trophic) containing 5% (vol/vol) ethanol.
Chronic (8 weeks)-plus-multiple binges (E8w+nB): mice were fed an ethanol Lieber-DeCarli diet for 8 weeks as described above and treated by gavage administration twice a week (5 g/kg ethanol) during the 8-week feeding. Mice were euthanized 9 h post gavage.
The control mice were pair-fed an isocaloric control liquid diet for 8 weeks (P8w), followed by gavage administration of isocaloric liquid dextrin-maltose (Ctrl), without exposure to alcohol.
Compound 1 was made fresh for each experiment in sterile 0.9% saline at 20 mg/ml and administered intraperitoneally (10 mg/kg) daily for the last two weeks.
Blood samples and livers were harvested for serum ALT and AST, and histology. All liver sections were stained with H&E and Oil Red O staining. The features of alcoholic liver disease (“ALD”) are scored according to the non-alcoholic fatty liver disease (“NAFLD”) activity score (“NAS”) originally developed to measure changes in NAFLD during therapeutic trials but is also applicable to ALD. The ALD score of each group was calculated according to standard procedures.
Oil Red O is a fat-soluble azo dye, used to stain fats, specifically neutral triglycerides, lipids and lipoproteins in tissues and cells. […] The Oil Red O quantification “a.v.” means a subjective quantity, i.e., “arbitrary value”. The image quantification software ImageJ was used to select the area of oil red staining in liver sections and the area of lipid droplets in quantitative sections.

The mark [3] stands for this setting: 5 mg/kg and 10 mg/kg i.v., 6 hours after APAP.
Where [4] appears, read: 5 mg/kg and 10 mg/kg i.v., 24 hours after APAP.
Where [5] appears, read: all Compound 1 levels (1, 2.5, 5, 10 mg/kg i.v.), 6 hours after APAP.
The mark [6] stands for this setting: all Compound 1 levels (1, 2.5, 5, 10 mg/kg i.v.), 24 hours after APAP.

Turning to `C/C=C/C[C@@H](C)[C@@H](O)[C@H]1C(=O)N[C@@H](CC)C(=O)N(C)[C@H](OCCN(C)C)C(=O)N(C)[C@@H](CC(C)C)C(=O)N[C@@H](C(C)C)C(=O)N(C)[C@@H](CC(C)C)C(=O)N[C@@H](C)C(=O)N[C@H](C)C(=O)N(C)[C@@H](CC(C)C)C(=O)N(C)[C@@H](CC(C)C)C(=O)N(C)[C@@H](C(C)C)C(=O)N1C` [Compound 1, [(R)-2′(2-dimethylaminoethoxy)-Sar]^3 cyclosporin A], the “TNF-α, IL-1β, and/or IL-6 inflammation biomarker levels of the liver” value in experiment [1] (2.5 mg/kg, 5 mg/kg and 10 mg/kg i.v., 6 hours after APAP) is “reduced”. Further, the “Necrotic Area (%) of the liver (liver tissue protection)” value in experiment [1] (6 hours after APAP) was “showed liver tissue protection; also recorded: reduced necrotic area”. The “Necrotic Area (%) of the liver (liver tissue protection)” value in experiment [1] (24 hours after APAP) is “showed liver tissue protection; also recorded: reduced necrotic area”. In addition, in experiment [1] (setting [3]), the “IL-1β inflammation biomarker (ELISA)” value is listed as “reduced”, the “IL-6 inflammation biomarker (ELISA)” value is recorded as “reduced”, the “TNF-α inflammation biomarker (ELISA)” value was “reduced” and the ALT biomarker level entry was “reduced”. Also, in experiment [1] (setting [3]), the AST biomarker level entry is “reduced”. Moreover, in experiment [1] (setting [4]), the “IL-1β inflammation biomarker (ELISA)” value was “reduced”, the “IL-6 inflammation biomarker (ELISA)” value is “reduced”, the “TNF-α inflammation biomarker (ELISA)” value is “reduced” and the ALT biomarker level entry is recorded as “reduced”. Further, the AST biomarker level entry in experiment [1] (setting [4]) was “reduced”. Besides, in experiment [1] (setting [5]), the “serum ALT (alanine aminotransferase) biomarker level” value is “reduced” and the “serum AST (aspartate aminotransferase) biomarker level” value was “reduced”. In experiment [1] (setting [6]), the “TNF-α, IL-1β, and/or IL-6 inflammation biomarker levels of the liver” value is on record as “reduced”; the “serum ALT (alanine aminotransferase) biomarker level” value is “reduced”; the “serum AST (aspartate aminotransferase) biomarker level” value was “reduced”. In experiment [2] (vs untreated ALD), the “serum ALT (alanine aminotransferase) level” value is listed as “reduces” and the “serum AST (aspartate aminotransferase) level” value is given as “reduces”. For the same compound, in experiment [2] (vs untreated ALD Group), the “hepatic lipid accumulation (Oil Red O liver staining, a.v.)” value is given as “reduces hepatic lipid accumulation”.

The record behind these values is patent US20260240941A1, “TREATMENT AND PREVENTION OF AGENT-INDUCED LIVER CONDITIONS OR DISEASES” (FARSIGHT MEDICAL TECHNOLOGY (SHANGHAI) CO., LTD., priority 2023, published 2026).
